Assay results: ChEMBL document CHEMBL4609984, “Design, synthesis and biological evaluation of imidazole and oxazole fragments as HIV-1 integrase-LEDGF/p75 disruptors and inhibitors of microbial pathogens” (Bioorg Med Chem, 2020)
pEC50, pIC50: −log10 of the molar value. ≈ marks a conversion by molar mass, not a printed value. Calls of active or inactive are those of the source. No cut-off for these calls is given here.

Legend:
Escherichia coli = experiment: Antibacterial activity against Escherichia coli ATCC 8739 assessed as reduction in bacterial growth incubated for 24 hrs by INT dye based assay; assay type: functional; settings: ATCC 8739, 24 h
Pseudomonas aeruginosa = experiment: Antibacterial activity against Pseudomonas aeruginosa ATCC 27858 assessed as reduction in bacterial growth incubated for 24 hrs by INT dye based assay; assay type: functional; settings: ATCC 27858, 24 h
[1] = molecular target: Human immunodeficiency virus type 1 integrase (Human immunodeficiency virus 1) (UniProt Q7ZJM1); experiment: Inhibition of HIV-1 integrase assessed as inhibition of interaction of HIV-1 IN with LEDGF/p75 (unknown origin) at 10 uM incubated for 1 hr by Alphascreen TruHits counter assay
[2] = test system: Human immunodeficiency virus 1; experiment: Antiviral activity against HIV-1 NL4-3 infected in human MT4 cells assessed as reduction in p24 gag protein at 10 uM incubated for 5 days by ELISA; assay type: functional, organism-based
Candida tropicalis = experiment: Antimicrobial activity against Candida tropicalis ATCC 750 assessed as reduction in fungal growth incubated for 48 hrs by INT dye based assay; assay type: functional
[3] = test system: Human immunodeficiency virus 1; experiment: Antiviral activity against HIV-1 NL4-3 infected in human MT4 cells assessed as reduction in p24 gag protein incubated for 5 days by ELISA; assay type: functional, organism-based; settings: Human immunodeficiency virus 1, NL4-3, MT4, 120 h
[4] = Cytotoxicity against human MT4 cells assessed as reduction in cell viability incubated for 5 days by MTS assay; assay type: cell-based
[5] = molecular target: Human immunodeficiency virus type 1 integrase (Human immunodeficiency virus 1) (UniProt Q7ZJM1); experiment: Inhibition of HIV-1 integrase assessed as inhibition of interaction of HIV-1 IN with LEDGF/p75 (unknown origin) at 10 uM preincubated with enzyme for 30 mins followed by further incubation with LEDGF/p75 for 1 hr by Alphascreen assay relative to control
[6] = molecular target: Human immunodeficiency virus type 1 integrase (Human immunodeficiency virus 1, UniProt Q7ZJM1); experiment: Inhibition of HIV-1 integrase assessed as inhibition of interaction of HIV-1 IN with LEDGF/p75 (unknown origin) preincubated with enzyme for 30 mins followed by further incubation with LEDGF/p75 for 1 hr by Alphascreen assay
MT4 = experiment: Cytotoxicity against human MT4 cells assessed as reduction in cell viability at 10 uM incubated for 5 days by MTS assay; assay type: cell-based; settings: mt4, 120 h
Bacillus cereus = experiment: Antibacterial activity against Bacillus cereus ATCC 11779 assessed as reduction in bacterial growth incubated for 24 hrs by INT dye based assay; assay type: functional; settings: ATCC 11779, 24 h
Staphylococcus aureus = experiment: Antibacterial activity against Staphylococcus aureus ATCC 25923 assessed as reduction in bacterial growth incubated for 24 hrs by INT dye based assay; assay type: functional; settings: ATCC 25923, 24 h

Chain of Human immunodeficiency virus type 1 integrase (Q7ZJM1 whole entry): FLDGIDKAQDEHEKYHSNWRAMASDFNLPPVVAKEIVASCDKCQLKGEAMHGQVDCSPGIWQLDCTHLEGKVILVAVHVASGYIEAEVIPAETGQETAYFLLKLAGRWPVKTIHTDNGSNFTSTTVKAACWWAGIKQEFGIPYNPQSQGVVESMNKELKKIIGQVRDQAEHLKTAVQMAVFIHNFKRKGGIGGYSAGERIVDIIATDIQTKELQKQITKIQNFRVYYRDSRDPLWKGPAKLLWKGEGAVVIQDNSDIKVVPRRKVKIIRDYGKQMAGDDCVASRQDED
Chain of Human immunodeficiency virus type 1 integrase (Human immunodeficiency virus 1) (Q7ZJM1 as listed by the source): as the sequence (Q7ZJM1 whole entry) above

## COc1cccc(-c2cncn2C2CCCCC2)c1
Escherichia coli
  MIC: > 250 µg/mL
Pseudomonas aeruginosa
  MIC: > 250 µg/mL
[1]
  inhibition: Active
[2]
  Activity: inactive
Candida tropicalis; ATCC 750, 48 h
  MIC: 62.5 µg/mL (≈ 244 µM)
[3]
  pEC50: < 5.00
[4]
  CC50 at 120 h: 27.7 µM
[5]
  inhibition: 55%
[6]
  pIC50: 4.66
MT4
  Activity: Non-Toxic
Bacillus cereus
  MIC: 62.5 µg/mL (≈ 244 µM)
Staphylococcus aureus
  MIC: 62.5 µg/mL (≈ 244 µM)

## COc1cccc(-c2cnco2)c1
[5]
  inhibition: 33%
MT4
  Activity: Non-Toxic

## CCCCn1cncc1-c1ccc2c(c1)OCO2
Escherichia coli
  MIC: > 250 µg/mL
Pseudomonas aeruginosa
  MIC: > 250 µg/mL
[5]
  inhibition: 35%
MT4
  Activity: Non-Toxic
Bacillus cereus
  MIC: 31.3 µg/mL (≈ 128 µM)

## CC(C)(C)c1ccc(-c2cnco2)cc1
[5]
  inhibition: 35%
MT4
  Activity: Non-Toxic

## CCCCn1cncc1-c1ccc([N+](=O)[O-])cc1
[5]
  inhibition: 27%
MT4
  Activity: Non-Toxic

## CCCCn1cncc1-c1ccc(C(C)(C)C)cc1
Escherichia coli
  MIC: 250 µg/mL (≈ 975 µM)
Pseudomonas aeruginosa
  MIC: 250 µg/mL (≈ 975 µM)
[1]
  inhibition: Active
[2]
  Activity: inactive
Candida tropicalis; ATCC 750, 48 h
  MIC: 31.3 µg/mL (≈ 122 µM)
[3]
  pEC50: < 5.00
[4]
  CC50 at 120 h: 23.9 µM
[5]
  inhibition: 56%
[6]
  pIC50: 4.65
MT4
  Activity: Non-Toxic
Bacillus cereus
  MIC: 31.3 µg/mL (≈ 122 µM)
Staphylococcus aureus
  MIC: 15.6 µg/mL (≈ 60.8 µM)

## CCCCn1cncc1-c1ccccc1[N+](=O)[O-]
[5]
  inhibition: 30%
MT4
  Activity: Non-Toxic

## Fc1ccc(-c2cncn2Cc2ccccc2)cc1
Escherichia coli
  MIC: > 250 µg/mL
Pseudomonas aeruginosa
  MIC: > 250 µg/mL
Candida tropicalis; ATCC 750, 48 h
  MIC: > 250 µg/mL
[5]
  inhibition: 25%
MT4
  Activity: Non-Toxic
Bacillus cereus
  MIC: 125 µg/mL (≈ 495 µM)
Staphylococcus aureus
  MIC: 62.5 µg/mL (≈ 248 µM)

## O=[N+]([O-])c1ccc(-c2cnco2)cc1
[5]
  inhibition: 33%
MT4
  Activity: Non-Toxic

## CCCCn1cncc1-c1ccc2c(c1)OCCO2
[5]
  inhibition: 21%
MT4
  Activity: Non-Toxic

## c1ccc(-c2cnco2)cc1
[5]
  inhibition: 31%
MT4
  Activity: Non-Toxic

## c1cc2c(cc1-c1cncn1C1CCCCC1)OCO2
[5]
  inhibition: 40%
MT4
  Activity: Non-Toxic

## CCCCn1cncc1-c1ccc(OC)cc1OC
[5]
  inhibition: 26%
MT4
  Activity: Non-Toxic

## Cc1ccc(S(=O)(=O)[C@H]2N=CO[C@@H]2c2ccccc2)cc1 (racemic)
[5]
  inhibition: 34%
MT4
  Activity: Non-Toxic

## CCCCn1cncc1-c1ccc(F)cc1
[5]
  inhibition: 30%
MT4
  Activity: Non-Toxic

## COc1ccc(-c2cnco2)c(OC)c1
[5]
  inhibition: 42%
MT4
  Activity: Non-Toxic

## Fc1ccc(-c2cncn2C2CC2)cc1
[5]
  inhibition: 31%
MT4
  Activity: Non-Toxic

## Brc1ccc(-n2cncc2-c2ccc3c(c2)OCO3)cc1
[5]
  inhibition: 48%
MT4
  Activity: Non-Toxic

## COc1cccc(-c2cncn2C2CC2)c1
[5]
  inhibition: 40%
MT4
  Activity: Non-Toxic

## Cc1ccc(S(=O)(=O)[C@H]2N=CO[C@@H]2c2ccccc2[N+](=O)[O-])cc1 (racemic)
[5]
  inhibition: 38%
MT4
  Activity: Non-Toxic

## c1ncc(-c2ccc3c(c2)OCO3)o1
[5]
  inhibition: 35%
MT4
  Activity: Non-Toxic

## CCCCn1cncc1-c1cccc(OC)c1
Escherichia coli
  MIC: 125 µg/mL (≈ 543 µM)
Pseudomonas aeruginosa
  MIC: > 250 µg/mL
[1]
  inhibition: Active
[2]
  Activity: inactive
Candida tropicalis; ATCC 750, 48 h
  MIC: 62.5 µg/mL (≈ 271 µM)
[3]
  pEC50: < 5.00
[4]
  CC50 at 120 h: 29.6 µM
[5]
  inhibition: 51%
[6]
  pIC50: 4.52
MT4
  Activity: Non-Toxic
Bacillus cereus
  MIC: 62.5 µg/mL (≈ 271 µM)
Staphylococcus aureus
  MIC: > 250 µg/mL

## O=[N+]([O-])c1ccccc1-c1cncn1C1CCCCC1
MT4
  Activity: Non-Toxic

## O=C(O)c1cn(C2CC2)c2cc(N3CCNCC3)c(F)cc2c1=O [CIPROFLOXACIN]
Escherichia coli
  MIC: 0.313 µg/mL (≈ 0.945 µM)
Pseudomonas aeruginosa
  MIC: 0.313 µg/mL (≈ 0.945 µM)
Bacillus cereus
  MIC: 0.156 µg/mL (≈ 0.471 µM)
Staphylococcus aureus
  MIC: 0.156 µg/mL (≈ 0.471 µM)

## COc1cccc(-c2cncn2Cc2ccccc2)c1
[5]
  inhibition: 21%
MT4
  Activity: Non-Toxic

## COc1ccc(-c2cncn2C2CC2)c(OC)c1
[5]
  inhibition: 28%
MT4
  Activity: Non-Toxic

## CC(C)(C)c1ccc(-c2cncn2C2CCCCC2)cc1
Escherichia coli
  MIC: > 250 µg/mL
Pseudomonas aeruginosa
  MIC: > 250 µg/mL
[1]
  inhibition: Active
[2]
  Activity: inactive
Candida tropicalis; ATCC 750, 48 h
  MIC: 31.3 µg/mL (≈ 111 µM)
[3]
  pEC50: < 5.00
[4]
  CC50 at 120 h: 21.8 µM
[5]
  inhibition: 62%
[6]
  pIC50: 4.84
MT4
  Activity: Non-Toxic
Bacillus cereus
  MIC: 15.6 µg/mL (≈ 55.2 µM)
Staphylococcus aureus
  MIC: 62.5 µg/mL (≈ 221 µM)

## Cc1ccc(S(=O)(=O)[C@H]2N=CO[C@@H]2c2ccc3c(c2)OCO3)cc1 (racemic)
[5]
  inhibition: 33%
MT4
  Activity: Non-Toxic

## Clc1ccccc1-c1cncn1C1CCCCC1
[5]
  inhibition: 31%
MT4
  Activity: Non-Toxic

## O=[N+]([O-])c1ccccc1-c1cnco1
[5]
  inhibition: 30%
MT4
  Activity: Non-Toxic

## Fc1ccc(-c2cnco2)cc1
[5]
  inhibition: 23%
MT4
  Activity: Non-Toxic

## NYSTATIN
Candida tropicalis
  MIC: 1.25 µg/mL

## Fc1ccc(-c2cncn2C2CCCCC2)cc1
[5]
  inhibition: 45%
MT4
  Activity: Non-Toxic

## Fc1ccc(-c2cncn2-c2ccc(Br)cc2)cc1
[1]
  inhibition: Active
[2]
  Activity: inactive
[3]
  pEC50: < 5.00
[4]
  CC50 at 120 h: 48 µM
[5]
  inhibition: 52%
[6]
  pIC50: 4.60
MT4
  Activity: Non-Toxic

## O=[N+]([O-])c1ccc(-c2cncn2C2CCCCC2)cc1
MT4
  Activity: Non-Toxic

## COc1ccc(-c2cncn2-c2ccc(Br)cc2)c(OC)c1
[1]
  inhibition: Active
[2]
  Activity: inactive
[3]
  pEC50: < 5.00
[4]
  CC50 at 120 h: 55.5 µM
[5]
  inhibition: 52%
[6]
  pIC50: 5.15
MT4
  Activity: Non-Toxic

## Clc1ccccc1-c1cnco1
[5]
  inhibition: 33%
MT4
  Activity: Non-Toxic

## COc1ccc(-c2cncn2C2CCCCC2)c(OC)c1
Escherichia coli
  MIC: > 250 µg/mL
Pseudomonas aeruginosa
  MIC: > 250 µg/mL
Candida tropicalis; ATCC 750, 48 h
  MIC: 125 µg/mL (≈ 436 µM)
[5]
  inhibition: 40%
MT4
  Activity: Non-Toxic
Bacillus cereus
  MIC: 250 µg/mL (≈ 873 µM)
Staphylococcus aureus
  MIC: 62.5 µg/mL (≈ 218 µM)

## COc1ccc(-c2cncn2Cc2ccccc2)c(OC)c1
Escherichia coli
  MIC: > 250 µg/mL
Pseudomonas aeruginosa
  MIC: > 250 µg/mL
Candida tropicalis; ATCC 750, 48 h
  MIC: 250 µg/mL (≈ 849 µM)
[5]
  inhibition: 17%
MT4
  Activity: Non-Toxic
Bacillus cereus
  MIC: 125 µg/mL (≈ 425 µM)
Staphylococcus aureus
  MIC: 62.5 µg/mL (≈ 212 µM)

## CCCCn1cncc1-c1ccccc1Cl
[5]
  inhibition: 37%
MT4
  Activity: Non-Toxic

## c1ccc(Cn2cncc2-c2ccc3c(c2)OCO3)cc1
[5]
  inhibition: 43%
MT4
  Activity: Non-Toxic
